Active and inactive are the calls of the source. The calls are words filed in the database; no cut-off is given here.

One experiment deals with NIH3T3. Briefly: Inhibition of TNF-alpha induced necroptosis in mouse 3T3SA cells assessed as increase in cell viability at 0.04 to 1 uM incubated for 18 hrs in presence of zVAD by Cell Titer-Glo luminescent cell viability assay. It is filed as functional, cell-based. Conditions: dose 0.04-1 µM.
Experiment [1] deals with T1, Beta-adrenergic receptor kinase 1 (Homo sapiens) (UniProt P25098).
T1 sequence (whole entry): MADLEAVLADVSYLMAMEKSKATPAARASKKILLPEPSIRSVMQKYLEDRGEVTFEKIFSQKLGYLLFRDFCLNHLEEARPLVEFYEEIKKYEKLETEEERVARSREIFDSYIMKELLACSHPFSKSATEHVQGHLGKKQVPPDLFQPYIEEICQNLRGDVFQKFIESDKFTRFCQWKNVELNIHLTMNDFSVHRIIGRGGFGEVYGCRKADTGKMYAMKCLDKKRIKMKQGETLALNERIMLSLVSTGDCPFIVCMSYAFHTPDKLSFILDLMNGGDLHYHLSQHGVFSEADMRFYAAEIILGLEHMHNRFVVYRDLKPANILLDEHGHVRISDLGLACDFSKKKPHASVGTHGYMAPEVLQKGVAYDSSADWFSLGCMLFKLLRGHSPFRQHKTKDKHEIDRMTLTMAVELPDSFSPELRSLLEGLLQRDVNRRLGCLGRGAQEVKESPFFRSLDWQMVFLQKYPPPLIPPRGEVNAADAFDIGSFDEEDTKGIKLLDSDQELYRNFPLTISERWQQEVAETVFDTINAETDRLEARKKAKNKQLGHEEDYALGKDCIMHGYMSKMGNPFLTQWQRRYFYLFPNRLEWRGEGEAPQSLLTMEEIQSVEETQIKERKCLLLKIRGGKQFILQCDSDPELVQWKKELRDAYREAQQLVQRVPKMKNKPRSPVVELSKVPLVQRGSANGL
Put plainly: Inhibition of human GRK2 using casein as substrate at 1 uM in presence of 32P-ATP by Hotspot assay relative to control; values are per cent of control.

The target of experiment [2] is Cyclin-dependent kinase 5/CDK5 activator 1 (Homo sapiens) (UniProt Q00535+Q15078). Put plainly: Inhibition of human CDK5/p25 using RB Protein as substrate at 1 uM in presence of 32P-ATP by Hotspot assay relative to control; values are per cent of control.
Experiment [3] concerns the target Calcium/calmodulin-dependent protein kinase type 1D (Homo sapiens) (UniProt Q8IU85). Briefly: Inhibition of human CAMK1d using KKALRRQETVDAL as substrate at 1 uM in presence of 32P-ATP by Hotspot assay relative to control; values are per cent of control.
Experiment [4] deals with Calcium/calmodulin-dependent protein kinase type II subunit delta (Homo sapiens) (UniProt Q13557). Put plainly: Inhibition of human CAMK2d using KKLNRTLSFAEPG as substrate at 1 uM in presence of 32P-ATP by Hotspot assay relative to control; values are per cent of control.
The target of experiment [5] is Protein kinase C gamma type (Homo sapiens) (UniProt P05129). Put plainly: Inhibition of human PKCg using ERMRPRKRQGSVRRRV as substrate at 1 uM in presence of 32P-ATP by Hotspot assay relative to control; values are per cent of control.
Experiment [6] deals with Epidermal growth factor receptor (Homo sapiens) (UniProt P00533). Briefly: Inhibition of human EGFR using poly[Glu:Tyr] (4:1) as substrate at 1 uM in presence of 32P-ATP by Hotspot assay relative to control; values are per cent of control.
For experiment [7], the target named is T2, Serine/threonine-protein kinase Nek1 (Homo sapiens) (UniProt Q96PY6).
T2 sequence (whole entry): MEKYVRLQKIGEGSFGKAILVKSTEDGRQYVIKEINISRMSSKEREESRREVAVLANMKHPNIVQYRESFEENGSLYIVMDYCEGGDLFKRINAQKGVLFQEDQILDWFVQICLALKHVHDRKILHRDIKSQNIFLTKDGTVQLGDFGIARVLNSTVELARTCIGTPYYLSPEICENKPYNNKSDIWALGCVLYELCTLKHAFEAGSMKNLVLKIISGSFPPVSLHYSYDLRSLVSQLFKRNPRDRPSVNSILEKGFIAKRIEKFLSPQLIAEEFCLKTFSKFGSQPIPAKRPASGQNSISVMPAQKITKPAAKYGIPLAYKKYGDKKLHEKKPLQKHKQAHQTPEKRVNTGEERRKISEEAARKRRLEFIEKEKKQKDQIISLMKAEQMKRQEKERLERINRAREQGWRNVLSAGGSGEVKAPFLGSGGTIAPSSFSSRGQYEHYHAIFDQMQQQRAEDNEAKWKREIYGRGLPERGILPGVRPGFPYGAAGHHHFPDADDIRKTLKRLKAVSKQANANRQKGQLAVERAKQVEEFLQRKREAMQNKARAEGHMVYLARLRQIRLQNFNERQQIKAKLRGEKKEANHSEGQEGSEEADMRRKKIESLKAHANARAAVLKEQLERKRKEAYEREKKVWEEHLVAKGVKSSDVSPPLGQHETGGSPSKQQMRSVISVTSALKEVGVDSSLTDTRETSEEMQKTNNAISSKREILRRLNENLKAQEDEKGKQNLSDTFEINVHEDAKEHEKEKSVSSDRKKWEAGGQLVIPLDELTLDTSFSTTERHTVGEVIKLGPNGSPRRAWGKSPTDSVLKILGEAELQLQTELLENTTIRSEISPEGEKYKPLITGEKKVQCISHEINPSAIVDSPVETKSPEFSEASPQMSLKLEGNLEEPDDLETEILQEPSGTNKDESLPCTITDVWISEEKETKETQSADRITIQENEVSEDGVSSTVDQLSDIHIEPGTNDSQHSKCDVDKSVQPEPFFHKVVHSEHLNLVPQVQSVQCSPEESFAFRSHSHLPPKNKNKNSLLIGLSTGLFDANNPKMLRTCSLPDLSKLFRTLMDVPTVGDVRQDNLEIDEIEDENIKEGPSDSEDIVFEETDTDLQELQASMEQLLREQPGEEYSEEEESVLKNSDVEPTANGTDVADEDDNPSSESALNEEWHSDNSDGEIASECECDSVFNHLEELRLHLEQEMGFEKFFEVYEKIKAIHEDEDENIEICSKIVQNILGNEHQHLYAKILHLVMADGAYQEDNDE
Put plainly: Inhibition of human NEK1 using myelin basic protein as substrate at 1 uM in presence of 32P-ATP by Hotspot assay relative to control; values are per cent of control.

The target in experiment [8] is Homeodomain-interacting protein kinase 1 (Homo sapiens) (UniProt Q86Z02). Briefly: Inhibition of human HIPK1 using myelin basic protein as substrate at 1 uM in presence of 32P-ATP by Hotspot assay relative to control; values are per cent of control.
Chain of Homeodomain-interacting protein kinase 1 (Homo sapiens) (Q86Z02 whole entry, looked up): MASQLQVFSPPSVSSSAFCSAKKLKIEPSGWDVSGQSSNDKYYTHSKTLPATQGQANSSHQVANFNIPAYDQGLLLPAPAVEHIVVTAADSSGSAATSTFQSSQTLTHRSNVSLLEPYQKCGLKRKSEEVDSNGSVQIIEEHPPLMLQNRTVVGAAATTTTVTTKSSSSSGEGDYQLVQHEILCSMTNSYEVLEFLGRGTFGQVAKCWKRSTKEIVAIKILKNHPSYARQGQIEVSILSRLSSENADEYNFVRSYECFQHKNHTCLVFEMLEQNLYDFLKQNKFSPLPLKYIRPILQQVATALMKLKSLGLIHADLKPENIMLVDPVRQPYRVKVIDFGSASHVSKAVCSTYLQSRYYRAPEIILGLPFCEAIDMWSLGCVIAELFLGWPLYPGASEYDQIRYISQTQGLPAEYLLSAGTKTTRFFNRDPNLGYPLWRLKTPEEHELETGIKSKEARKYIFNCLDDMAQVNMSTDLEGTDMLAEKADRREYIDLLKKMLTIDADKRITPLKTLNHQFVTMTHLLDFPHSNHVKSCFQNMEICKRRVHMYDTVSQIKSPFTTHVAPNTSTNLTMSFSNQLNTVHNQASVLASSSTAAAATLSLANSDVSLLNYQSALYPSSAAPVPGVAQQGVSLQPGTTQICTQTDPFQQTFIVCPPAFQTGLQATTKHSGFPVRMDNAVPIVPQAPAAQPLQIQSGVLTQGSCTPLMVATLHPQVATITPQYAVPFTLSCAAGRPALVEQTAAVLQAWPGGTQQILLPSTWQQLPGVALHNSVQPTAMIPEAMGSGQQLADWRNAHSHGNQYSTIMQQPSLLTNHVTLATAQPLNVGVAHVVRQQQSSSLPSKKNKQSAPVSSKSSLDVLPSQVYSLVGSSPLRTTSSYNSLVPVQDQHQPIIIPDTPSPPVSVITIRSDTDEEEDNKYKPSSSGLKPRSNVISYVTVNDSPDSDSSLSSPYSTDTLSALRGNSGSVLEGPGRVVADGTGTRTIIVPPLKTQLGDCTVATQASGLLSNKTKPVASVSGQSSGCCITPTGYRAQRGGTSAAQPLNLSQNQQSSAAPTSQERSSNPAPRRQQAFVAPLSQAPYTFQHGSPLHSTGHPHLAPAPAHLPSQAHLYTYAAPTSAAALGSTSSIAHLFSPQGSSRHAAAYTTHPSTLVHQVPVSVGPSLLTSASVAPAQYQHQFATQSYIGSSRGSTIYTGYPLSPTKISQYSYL

Chain of Cyclin-dependent kinase 5/CDK5 activator 1 (Homo sapiens) (Q00535 whole entry): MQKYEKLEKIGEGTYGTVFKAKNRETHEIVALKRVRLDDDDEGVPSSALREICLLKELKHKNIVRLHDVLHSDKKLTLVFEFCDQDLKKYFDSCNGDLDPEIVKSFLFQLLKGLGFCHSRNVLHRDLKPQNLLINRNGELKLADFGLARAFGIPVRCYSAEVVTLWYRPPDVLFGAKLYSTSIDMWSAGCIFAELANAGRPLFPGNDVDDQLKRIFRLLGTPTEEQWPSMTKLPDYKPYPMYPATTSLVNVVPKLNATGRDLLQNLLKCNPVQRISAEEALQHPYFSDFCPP
Chain of Cyclin-dependent kinase 5/CDK5 activator 1 (Homo sapiens) (Q15078 99-307 partner limits assumed): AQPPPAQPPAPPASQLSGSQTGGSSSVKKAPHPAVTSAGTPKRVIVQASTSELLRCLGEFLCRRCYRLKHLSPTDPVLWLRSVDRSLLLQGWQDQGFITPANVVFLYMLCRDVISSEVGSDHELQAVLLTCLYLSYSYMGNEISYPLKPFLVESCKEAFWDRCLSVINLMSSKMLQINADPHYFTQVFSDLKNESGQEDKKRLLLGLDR
Chain of Epidermal growth factor receptor (Homo sapiens) (P00533 whole entry): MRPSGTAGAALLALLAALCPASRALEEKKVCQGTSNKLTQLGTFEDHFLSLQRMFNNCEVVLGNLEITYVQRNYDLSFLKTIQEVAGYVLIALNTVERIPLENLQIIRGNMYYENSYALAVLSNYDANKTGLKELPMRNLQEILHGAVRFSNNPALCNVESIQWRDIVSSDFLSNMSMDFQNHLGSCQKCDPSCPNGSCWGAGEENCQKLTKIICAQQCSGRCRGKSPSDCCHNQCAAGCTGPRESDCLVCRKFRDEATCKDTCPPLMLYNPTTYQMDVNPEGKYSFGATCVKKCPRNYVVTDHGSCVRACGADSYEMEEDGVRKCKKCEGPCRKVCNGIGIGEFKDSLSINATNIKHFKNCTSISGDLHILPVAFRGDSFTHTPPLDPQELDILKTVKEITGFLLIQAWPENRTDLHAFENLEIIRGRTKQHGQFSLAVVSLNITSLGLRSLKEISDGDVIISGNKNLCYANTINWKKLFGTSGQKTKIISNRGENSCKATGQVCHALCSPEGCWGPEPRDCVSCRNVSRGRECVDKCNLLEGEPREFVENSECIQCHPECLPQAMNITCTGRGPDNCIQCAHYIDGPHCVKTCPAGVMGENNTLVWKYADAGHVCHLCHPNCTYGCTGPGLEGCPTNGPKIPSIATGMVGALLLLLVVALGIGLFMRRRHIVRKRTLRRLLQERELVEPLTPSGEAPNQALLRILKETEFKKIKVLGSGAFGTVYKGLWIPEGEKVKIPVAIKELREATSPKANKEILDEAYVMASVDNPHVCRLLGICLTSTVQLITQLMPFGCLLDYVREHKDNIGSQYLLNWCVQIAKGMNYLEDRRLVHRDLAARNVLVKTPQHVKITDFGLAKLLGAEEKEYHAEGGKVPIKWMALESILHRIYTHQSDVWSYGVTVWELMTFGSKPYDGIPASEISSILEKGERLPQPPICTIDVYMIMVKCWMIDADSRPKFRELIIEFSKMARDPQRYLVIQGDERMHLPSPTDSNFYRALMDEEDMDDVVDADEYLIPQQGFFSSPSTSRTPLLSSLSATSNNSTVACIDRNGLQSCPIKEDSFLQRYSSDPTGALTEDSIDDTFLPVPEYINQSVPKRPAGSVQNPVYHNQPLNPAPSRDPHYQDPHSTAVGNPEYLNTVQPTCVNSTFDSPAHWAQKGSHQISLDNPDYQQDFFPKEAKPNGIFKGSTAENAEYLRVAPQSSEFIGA
Chain of Calcium/calmodulin-dependent protein kinase type 1D (Homo sapiens) (Q8IU85 whole entry, looked up): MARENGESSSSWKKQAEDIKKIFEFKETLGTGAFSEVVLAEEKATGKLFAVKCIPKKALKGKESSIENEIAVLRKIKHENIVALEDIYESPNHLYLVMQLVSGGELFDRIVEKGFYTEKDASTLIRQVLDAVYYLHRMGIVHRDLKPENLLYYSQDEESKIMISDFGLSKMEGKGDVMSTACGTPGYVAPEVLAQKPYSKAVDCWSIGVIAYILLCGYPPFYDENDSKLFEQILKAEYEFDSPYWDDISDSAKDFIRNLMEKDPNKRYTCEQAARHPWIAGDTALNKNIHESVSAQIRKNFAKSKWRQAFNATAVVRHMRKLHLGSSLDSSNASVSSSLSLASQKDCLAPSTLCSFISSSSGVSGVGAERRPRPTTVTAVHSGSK
Chain of Calcium/calmodulin-dependent protein kinase type II subunit delta (Homo sapiens) (Q13557 whole entry): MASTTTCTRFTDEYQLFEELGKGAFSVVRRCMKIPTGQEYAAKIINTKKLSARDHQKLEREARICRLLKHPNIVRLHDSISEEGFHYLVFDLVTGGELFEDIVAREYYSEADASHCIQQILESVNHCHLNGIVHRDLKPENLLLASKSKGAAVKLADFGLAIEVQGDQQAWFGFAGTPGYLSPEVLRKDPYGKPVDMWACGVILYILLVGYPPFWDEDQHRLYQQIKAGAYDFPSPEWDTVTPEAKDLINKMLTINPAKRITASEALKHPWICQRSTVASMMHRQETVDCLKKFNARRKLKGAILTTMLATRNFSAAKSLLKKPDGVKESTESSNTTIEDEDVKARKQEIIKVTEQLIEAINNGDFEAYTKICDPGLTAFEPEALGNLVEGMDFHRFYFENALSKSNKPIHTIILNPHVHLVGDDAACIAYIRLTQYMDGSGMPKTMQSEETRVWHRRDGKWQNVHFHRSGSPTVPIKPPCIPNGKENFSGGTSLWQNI

As for `Cc1cc(-c2cnc(N)c3c(-c4ccc5scnc5c4)csc23)n(C)n1`, the inhibition entry with NIH3T3 is “Active”. In addition, the residual activity stood at 101% in experiment [1]; 96.7% in experiment [2]; 97.8% in experiment [3]; 104% in experiment [4]; 86.6% in [5]; 93.9% in [6]. Besides, the residual activity in experiment [7] stood at 97.3%; in experiment [8] it was 102%.

Turning to `CC(C)S(=O)(=O)c1ccc2nccc(Nc3ccc4scnc4c3)c2c1`, the inhibition result in the experiment with NIH3T3 is “Active”. In addition, the residual activity in experiment [1] was 101%; in experiment [2], 99.9%; in experiment [3] it was 99%; in [4] it was 98.1%; in experiment [5], 99.4%; in experiment [6], 90.7%. Moreover, the residual activity in experiment [7] turned out to be 88.2%; in experiment [8], 88.3%.

As to `CNC(=O)c1ccc2c(c1)ncn2-c1ccc(CC(=O)OC(C)(C)C)cc1`, the inhibition entry with NIH3T3 is “inactive”. The residual activity in [1] turned out to be 97.7%; in experiment [2], 93.1%; in [3], 99.1%; in experiment [4], 97.3%; in experiment [5] it was 85.7%; in experiment [6] it was 97.7%. Moreover, the residual activity in [7] is 96.4%; in experiment [8], 87.5%.

(Values after ChEMBL document CHEMBL5649166, “RIP3 induces apoptosis independent of pronecrotic kinase activity” (Mol Cell, 2014).)
